# Data reported in US20080153903A1, “INHIBITORS OF PROTEIN KINASE C-DELTA FOR THE TREATMENT OF GLAUCOMA” (ALCON MANUFACTURING, LTD., priority 2006, published 2008).
# Legend:
# GTM-3 cells [1] = test: Fibronectin ELISA of culture supernatants from treated GTM-3 cell monolayers (TGFβ2 mediated responses); format: cell-based, human; conditions: GTM-3 monolayers, 24 h; for TGFβ2-stimulated fibronectin levels in supernatants: FIG. 1
# Procedure: FIG. 1A, FIG. 1B and FIG. 1C depict the effects of various amounts of PKC inhibitors on basal and stimulated (TGFβ2) fibronectin content in supernatants collected from treated monolayers of GTM-3 cells.
# (§1) Cultured transformed human TM cells (“GTM-3”; see Pang I H, et al., 1994) were grown in a growth medium consisting of Dulbecco's modified Eagle's medium with Glutamax I (Gibco/Invitrogen, Grand Island, N.Y.) supplemented with 10% fetal bovine serum (Hyclone, Logan, Utah) and 50 μg/mL gentamicin (Gibco/Invitrogen). For assay, cultures were enzymatically-dissociated (TrypLE Express; Gibco/Invitrogen) then seeded into 24-well plates (Corning Costar, Acton, Mass.) and allowed to grow until monolayers reached approximately 90-95% confluence. Culture medium was then replaced with 0.25 mL serum- and antibiotic-free medium containing the appropriate test compound(s). Cells were incubated 24 h, at 5% CO2 and 37° C. Aliquots of culture supernatants were then assayed using ELISA kits for fibronectin (AssayPro, St. Charles, Mo.), PAI-I (American Diagnostica, Stamford, Conn.) and procollagen Type I C-peptide (TaKaRa Bio, Shiga, Japan).
# (§2) The test compounds used were rottlerin (a specific PKC-delta inhibitor), Gö6976 (inhibits the calcium-dependent PKC isoforms alpha, beta, & mu) and bisindolylmaleimide I (a broad-spectrum PKC inhibitor).
# GTM-3 cells [2] = test: PAI-I ELISA of culture supernatants from treated GTM-3 cell monolayers (TGFβ2 mediated responses); format: cell-based, human; conditions: GTM-3 monolayers, 24 h; for TGFβ2-stimulated PAI-I levels in supernatants: FIG. 2
# Procedure: FIG. 2A, FIG. 2B and FIG. 2C depicts the effects of PKC inhibition on basal and stimulated (TGFβ2) PAI-I content in supernatants collected from treated monolayers of GTM-3 cells.
# as §1, §2
SMILES,TGFβ2-stimulated fibronectin levels in supernatants (GTM-3 cells [1]),"basal fibronectin in supernatants (GTM-3 cells [1]; basal, 10 uM dose, FIG. 1A)",TGFβ2-stimulated PAI-I levels in supernatants (GTM-3 cells [2]),"fibronectin levels in supernatants (GTM-3 cells [1]; basal and TGFβ2-stimulated, tested concentrations, FIG. 1C)","basal fibronectin content in supernatants (GTM-3 cells [1]; basal, FIG. 1B)","basal PAI-I content in supernatants (GTM-3 cells [2]; basal, FIG. 2B)"
CC(=O)c1c(O)c(C)c(O)c(Cc2c(O)c3c(c(C(=O)/C=C/c4ccccc4)c2O)OC(C)(C)C=C3)c1O [rottlerin],effectively reduces TGFβ2-stimulated fibronectin levels at both tested concentrations,effectively reduced basal fibronectin,dose-dependently reduces TGFβ2-stimulated PAI-I levels,–,–,–
"CN(C)CCCn1cc(C2=C(c3c[nH]c4ccccc34)C(=O)NC2=O)c2ccccc21 [Bis I, bisindolylmaleimide I]",–,–,reduced TGFβ2-stimulated PAI-I levels only at the 100 nM dose,lack of effect,–,–
Cn1c2ccccc2c2c3c(c4c5ccccc5n(CCC#N)c4c21)CNC3=O [Gö6976],without effect,–,without effect,–,without effect,without effect
